For this series, the system named is HL60 cells. Briefly: AsedaSciences SYSTEMETRIC Cell Health Screen (flow cytometry toxicity profiling). Particulars: HL60, 4 h, 5 nM–100 µM; for CC: Cell Cycle score / CM: Cell morphology score / CMI: Cell membrane integrity score / GSH: Glutathione score / MMP: Mitochondrial membrane depolarization score / NMI1: Nuclear membrane integrity 1 score / NMI2: Nuclear membrane integrity 2 score / ROS: Reactive superoxide species score: probability 0–1, n = 2; for CHI: Cell Health Index: probability (0–1) of high-risk class, n = 2. An excerpt:
To prioritize further optimization, in addition to cellular potency, we utilized the AsedaSciences® […]® Cell Health Screen. This live cell flow cytometry (FC) screen was developed to assess human safety risk for candidate pharmaceutical small molecules at the early hit-to-lead stage of development. The screen works by estimating the risk using a supervised machine learning (ML) classifier to assess a multiparametric cellular stress phenotype, produced by the test compound, relative to a training set of known compounds (Table S1). This screen has been designed for early pipeline risk estimation regardless of pharmaceutical class/disease type, so it uses HL60 as the reporter cell line.
The ML classifier was trained with 300 historically known compounds (on market or withdrawn drugs, research compounds, etc.), which were divided into two outcome classes based upon literature, clinical trials, and market histories where applicable. This external curation informed an outcome of “high-risk” or “low-risk”. All 300 compounds were also processed through the automated FC screen, populating each of the two classes with frequency distributions of empirical cell-based phenotypes.
To estimate human safety risk for an unknown compound, the ML classifier assesses the similarity of the test compound’s cell-based phenotype to the distributions of phenotypes in the two outcome classes. […] Phenotypes are derived from twelve FC detection parameters, including light scatter and a series of fluorescent physiological reporter dyes, that track cell stress-related endpoints.
To produce the Cell Health Index, the ML classifier uses all twelve FC parameters simultaneously in a multidimensional logistic regression model, so the CHI contains the most predictive power. In addition to the Cell Health Index, Table 4 also reports probability scores for eight cell stress-related endpoints. These scores are produced individually by passing information to the ML classifier relating to parameters that inform that endpoint. For example, to produce the cell morphology (CM) score, the ML classifier only uses the FC detection parameters for forward scatter (informing change in cell diameter) and side scatter (informing change in optical granularity of the cell) to inform the model. Together, these eight endpoints provide a “biological fingerprint”, allowing assessment of the degree to which SAR series members behave differently across endpoints.
In a 384-well platform, HL60 cells were exposed to a 10-step, 3 × dilution series of each test compound (5 nM–100 µM) for 4 h at 37 °C with 5% CO2. Each dilution series was screened in duplicate, occupying a total of 20 wells, allowing 16 test compounds to be assayed per plate. Each row contained one positive and one negative control well, for a total of 16 replicate positive/negative control pairs on each assay plate. Compound formatting, cell deposition, and dye application were performed robotically so that final assay conditions comprised 100,000 cells in a 40 µL volume. After the 4 h compound exposure, cells were immediately stained with a panel of fluorescent dyes that report physiological signatures of both mitochondrial dysfunction and gross cell stress. Fluorescence and forward/side-scatter data were collected using automated FC with no gating. FC data are processed by an automated algorithm for producing quality control measures and ML classification of compound phenotypes. • 2. HL60 cell culture production
HL60 cells were produced as suspension cultures in glass 850 cm^2 roller bottles with vented caps, at 1 RPM, 5% CO2, and 37 °C. […] Culture density was maintained at or below 1 × 10^6 cells/mL.

The structures appear in SMILES notation.

For `COc1cc2ncnc(Nc3ccc(F)c(Cl)c3)c2cc1OCCCN1CCOCC1` [Gefitinib, reference compound], the “CC: Cell Cycle score” value is recorded as 0.93, the “CM: Cell morphology score” value is given as 1.00, the “CMI: Cell membrane integrity score” value is 0.99 and the “GSH: Glutathione score” value worked out at 0.97. Further, the “MMP: Mitochondrial membrane depolarization score” value was found to be 0.99, the “NMI1: Nuclear membrane integrity 1 score” value was found to be 0.61, the “NMI2: Nuclear membrane integrity 2 score” value is given as 0.94 and the “ROS: Reactive superoxide species score” value is reported as 0.93. Besides, the “CHI: Cell Health Index” value was found to be 0.80.
Turning to `Clc1cccc(Cl)c1N=C1NCCN1` [Clonidine, reference compound], the “CC: Cell Cycle score” value is recorded as 0.060, the “CM: Cell morphology score” value stood at 0.00, the “CMI: Cell membrane integrity score” value was 0.030 and the “GSH: Glutathione score” value was found to be 0.10. The “MMP: Mitochondrial membrane depolarization score” value worked out at 0.010, the “NMI1: Nuclear membrane integrity 1 score” value is given as 0.15, the “NMI2: Nuclear membrane integrity 2 score” value came out at 0.040 and the “ROS: Reactive superoxide species score” value is 0.040. The “CHI: Cell Health Index” value turned out to be 0.14.
For the molecule `CC(C)NCC(O)COc1cccc2ccccc12` (stereo not shown) [Propranolol, reference compound], the “CC: Cell Cycle score” value is recorded as 0.24, the “CM: Cell morphology score” value stood at 0.060, the “CMI: Cell membrane integrity score” value was determined as 0.20 and the “GSH: Glutathione score” value is 0.11. In addition, the “MMP: Mitochondrial membrane depolarization score” value is reported as 0.010, the “NMI1: Nuclear membrane integrity 1 score” value is recorded as 0.69, the “NMI2: Nuclear membrane integrity 2 score” value came out at 0.23 and the “ROS: Reactive superoxide species score” value is recorded as 0.18.
On to `Cc1ccnc2c1NC(=O)c1cccnc1N2C1CC1` [Nevirapine, reference compound], for which the “CC: Cell Cycle score” value turned out to be 0.070, the “CM: Cell morphology score” value amounted to 0.020, the “CMI: Cell membrane integrity score” value worked out at 0.050 and the “GSH: Glutathione score” value came out at 0.030. Moreover, the “MMP: Mitochondrial membrane depolarization score” value is 0.010, the “NMI1: Nuclear membrane integrity 1 score” value was determined as 0.020, the “NMI2: Nuclear membrane integrity 2 score” value is 0.040 and the “ROS: Reactive superoxide species score” value was 0.28. Also, the “CHI: Cell Health Index” value was determined as 0.18.
Regarding `CCC(C)(C)C(=O)O[C@H]1C[C@@H](C)C=C2C=C[C@H](C)[C@H](CC[C@@H]3C[C@@H](O)CC(=O)O3)[C@H]21` [Simvastatin, reference compound], the “CC: Cell Cycle score” value is 0.12, the “CM: Cell morphology score” value is recorded as 0.030, the “CMI: Cell membrane integrity score” value came to 0.080 and the “GSH: Glutathione score” value is 0.41. Further, the “MMP: Mitochondrial membrane depolarization score” value was 0.060, the “NMI1: Nuclear membrane integrity 1 score” value came to 0.29, the “NMI2: Nuclear membrane integrity 2 score” value was 0.10 and the “ROS: Reactive superoxide species score” value came out at 0.11.
In the case of `O=C1CC2(CCCC2)CC(=O)N1CCCCN1CCN(c2ncccn2)CC1` [Buspirone, reference compound], the “CC: Cell Cycle score” value turned out to be 0.11, the “CM: Cell morphology score” value is listed as 0.060, the “CMI: Cell membrane integrity score” value is listed as 0.040 and the “GSH: Glutathione score” value is listed as 0.080. The “MMP: Mitochondrial membrane depolarization score” value is on record as 0.020, the “NMI1: Nuclear membrane integrity 1 score” value was found to be 0.070, the “NMI2: Nuclear membrane integrity 2 score” value is reported as 0.040 and the “ROS: Reactive superoxide species score” value stood at 0.05. The “CHI: Cell Health Index” value worked out at 0.22.
In the case of `COc1cc2c(Nc3ccc(Cl)c(Cl)c3F)ncnc2cc1OC[C@@H]1C[C@@H]2CN(C)C[C@@H]2C1` [Tesevatinib, reference compound], the “CC: Cell Cycle score” value was found to be 0.96, the “CM: Cell morphology score” value stood at 1.00, the “CMI: Cell membrane integrity score” value was determined as 1.00 and the “GSH: Glutathione score” value is 1.00. Further, the “MMP: Mitochondrial membrane depolarization score” value stood at 1.00, the “NMI1: Nuclear membrane integrity 1 score” value is 0.91, the “NMI2: Nuclear membrane integrity 2 score” value came out at 0.99 and the “ROS: Reactive superoxide species score” value came out at 1.00. In addition, the “CHI: Cell Health Index” value was determined as 0.92.
With `CC(CN1c2ccccc2Sc2ccccc21)N(C)C` (stereo not shown) [Promethazine, reference compound], the “CC: Cell Cycle score” value was 0.46, the “CM: Cell morphology score” value was 1.00, the “CMI: Cell membrane integrity score” value is 0.98 and the “GSH: Glutathione score” value was 0.96. The “MMP: Mitochondrial membrane depolarization score” value stood at 0.97, the “NMI1: Nuclear membrane integrity 1 score” value is given as 0.84, the “NMI2: Nuclear membrane integrity 2 score” value is reported as 0.94 and the “ROS: Reactive superoxide species score” value came to 0.98. Also, the “CHI: Cell Health Index” value is reported as 0.71.
In the case of `COc1ccc2cc3[n+](cc2c1OC)CCc1cc2c(cc1-3)OCO2` [Berberine, reference compound], the “CC: Cell Cycle score” value is given as 0.99, the “CM: Cell morphology score” value was found to be 0.99, the “CMI: Cell membrane integrity score” value stood at 0.050 and the “GSH: Glutathione score” value was 0.93. For the same molecule, the “MMP: Mitochondrial membrane depolarization score” value is given as 1.00, the “NMI1: Nuclear membrane integrity 1 score” value is 0.99, the “NMI2: Nuclear membrane integrity 2 score” value is 0.97 and the “ROS: Reactive superoxide species score” value is 1.00. For the same molecule, the “CHI: Cell Health Index” value was found to be 0.82.
For the molecule `O=C(O)c1cc(/N=N/c2ccc(S(=O)(=O)Nc3ccccn3)cc2)ccc1O` [Sulfasalazine, reference compound], the “CC: Cell Cycle score” value is 0.10, the “CM: Cell morphology score” value came to 0.010, the “CMI: Cell membrane integrity score” value is 0.060 and the “GSH: Glutathione score” value was 0.030. The “MMP: Mitochondrial membrane depolarization score” value was determined as 0.31, the “NMI1: Nuclear membrane integrity 1 score” value was 0.14, the “NMI2: Nuclear membrane integrity 2 score” value is on record as 0.63 and the “ROS: Reactive superoxide species score” value was 0.090.
Take `CCc1nn(CCCN2CCN(c3cccc(Cl)c3)CC2)c(=O)n1CCOc1ccccc1` [Nefazodone, reference compound]: the “CC: Cell Cycle score” value is listed as 0.97, the “CM: Cell morphology score” value is 0.97, the “CMI: Cell membrane integrity score” value turned out to be 1.00 and the “GSH: Glutathione score” value was found to be 0.99. Also, the “MMP: Mitochondrial membrane depolarization score” value came out at 1.00, the “NMI1: Nuclear membrane integrity 1 score” value is 0.73, the “NMI2: Nuclear membrane integrity 2 score” value was 0.87 and the “ROS: Reactive superoxide species score” value was 1.00. Also, the “CHI: Cell Health Index” value is recorded as 0.78.
Take `CC1(C)NC(=O)N(c2ccc([N+](=O)[O-])c(C(F)(F)F)c2)C1=O` [Nilutamide, reference compound]: the “CC: Cell Cycle score” value is reported as 0.68, the “CM: Cell morphology score” value was 0.040, the “CMI: Cell membrane integrity score” value is reported as 0.060 and the “GSH: Glutathione score” value is 0.040. Moreover, the “MMP: Mitochondrial membrane depolarization score” value turned out to be 0.42, the “NMI1: Nuclear membrane integrity 1 score” value was 0.21, the “NMI2: Nuclear membrane integrity 2 score” value amounted to 0.52 and the “ROS: Reactive superoxide species score” value is 0.090. The “CHI: Cell Health Index” value is recorded as 0.34.
In the case of `CC(C)(C(=O)O)c1ccc(C(O)CCCN2CCC(C(O)(c3ccccc3)c3ccccc3)CC2)cc1` (stereo not shown) [Fexofenadine, reference compound], the “CC: Cell Cycle score” value worked out at 0.020, the “CM: Cell morphology score” value is listed as 0.00, the “CMI: Cell membrane integrity score” value came out at 0.040 and the “MMP: Mitochondrial membrane depolarization score” value amounted to 0.020. Besides, the “ROS: Reactive superoxide species score” value turned out to be 0.16.
Turning to `CCOC(=O)N1CCC(=C2c3ccc(Cl)cc3CCc3cccnc32)CC1` [Loratadine, reference compound], the “CC: Cell Cycle score” value came out at 0.84, the “CM: Cell morphology score” value turned out to be 0.36, the “CMI: Cell membrane integrity score” value is on record as 0.70 and the “MMP: Mitochondrial membrane depolarization score” value stood at 0.65. The “ROS: Reactive superoxide species score” value was 0.85.

These data come from PMC9329436, “Optimization of the 4-anilinoquin(az)oline scaffold as epidermal growth factor receptor (EGFR) inhibitors for chordoma utilizing a toxicology profiling assay platform” (Scientific Reports, 2022).
